Experiment: mn = molality of the nth substance listed, in mol/kg
Settings: 350 kPa, Liquid; for apparent molar heat capacity: Extra sensitive DSC

OC[C@@H](O)[C@@H](O)CO [meso-1,2,3,4-butanetetrol] + O
Settings | apparent molar heat capacity [J/K/mol] | mass density [kg/m3]
278.15 K, m1 = 0.0201 | 261 | 1000.64
278.15 K, m1 = 0.05 | 279 | 1001.78
278.15 K, m1 = 0.0999 | 275.3 | 1003.47
278.15 K, m1 = 0.2501 | 273 | 1009.14
278.15 K, m1 = 0.4998 | 272.1 | 1017.67
278.15 K, m1 = 1 | 270.3 | 1034.19
278.15 K, m1 = 2.002 | 264 | 1062.98
278.15 K, m1 = 3.003 | 267.2 | 1087.04
283.15 K, m1 = 0.0201 | 273 | 1000.38
283.15 K, m1 = 0.05 | 290 | 1001.54
283.15 K, m1 = 0.0999 | 287.2 | 1003.19
283.15 K, m1 = 0.2501 | 285.1 | 1008.79
283.15 K, m1 = 0.4998 | 284.1 | 1017.48
283.15 K, m1 = 1 | 282.7 | 1033.48
283.15 K, m1 = 2.002 | 277.2 | 1061.96
283.15 K, m1 = 3.003 | 279.1 | 1085.8
288.15 K, m1 = 0.0201 | 282 | 999.84
288.15 K, m1 = 0.05 | 300 | 1000.96
288.15 K, m1 = 0.0999 | 296.3 | 1002.66
288.15 K, m1 = 0.2501 | 294.4 | 1008.13
288.15 K, m1 = 0.4998 | 293.4 | 1016.68
288.15 K, m1 = 1 | 291.9 | 1032.49
288.15 K, m1 = 2.002 | 286.3 | 1060.61
288.15 K, m1 = 3.003 | 288 | 1084.24
293.15 K, m1 = 0.0201 | 290 | –
293.15 K, m1 = 0.05 | 307 | –
293.15 K, m1 = 0.0999 | 303.8 | –
293.15 K, m1 = 0.2501 | 302.3 | –
293.15 K, m1 = 0.4998 | 301.3 | –
293.15 K, m1 = 1 | 299.9 | –
293.15 K, m1 = 2.002 | 294.2 | –
293.15 K, m1 = 3.003 | 295.7 | –
298.15 K, m1 = 0.0201 | 296 | 997.79
298.15 K, m1 = 0.05 | 314 | 998.88
298.15 K, m1 = 0.0999 | 310.6 | 1000.55
298.15 K, m1 = 0.2501 | 309 | 1005.86
298.15 K, m1 = 0.4998 | 308.1 | 1014.19
298.15 K, m1 = 1 | 306.6 | 1029.78
298.15 K, m1 = 2.002 | 300.7 | 1057.38
298.15 K, m1 = 3.003 | 302.1 | 1080.61
303.15 K, m1 = 0.0201 | 301 | –
303.15 K, m1 = 0.05 | 320 | –
303.15 K, m1 = 0.0999 | 316.6 | –
303.15 K, m1 = 0.2501 | 315 | –
303.15 K, m1 = 0.4998 | 314 | –
303.15 K, m1 = 1 | 312.5 | –
303.15 K, m1 = 2.002 | 306.6 | –
303.15 K, m1 = 3.003 | 307.8 | –
308.15 K, m1 = 0.0201 | 307 | 994.74
308.15 K, m1 = 0.05 | 325 | 995.77
308.15 K, m1 = 0.0999 | 321.8 | 997.29
308.15 K, m1 = 0.2501 | 320.2 | 1002.7
308.15 K, m1 = 0.4998 | 319.2 | 1010.88
308.15 K, m1 = 1 | 317.6 | 1026.18
308.15 K, m1 = 2.002 | 311.8 | 1053.42
308.15 K, m1 = 3.003 | 312.9 | 1076.46
313.15 K, m1 = 0.0201 | 311 | –
313.15 K, m1 = 0.05 | 330 | –
313.15 K, m1 = 0.0999 | 326.5 | –
313.15 K, m1 = 0.2501 | 324.8 | –
313.15 K, m1 = 0.4998 | 323.8 | –
313.15 K, m1 = 1 | 322.3 | –
313.15 K, m1 = 2.002 | 316.4 | –
313.15 K, m1 = 3.003 | 317.4 | –
318.15 K, m1 = 0.0201 | 315 | 990.96
318.15 K, m1 = 0.05 | 334 | 991.95
318.15 K, m1 = 0.0999 | 330.6 | 993.44
318.15 K, m1 = 0.2501 | 328.9 | 998.78
318.15 K, m1 = 0.4998 | 327.9 | 1006.84
318.15 K, m1 = 1 | 326.4 | 1021.96
318.15 K, m1 = 2.002 | 320.6 | 1048.89
318.15 K, m1 = 3.003 | 321.5 | 1071.67
323.15 K, m1 = 0.0201 | 318 | –
323.15 K, m1 = 0.05 | 338 | –
323.15 K, m1 = 0.0999 | 334.4 | –
323.15 K, m1 = 0.2501 | 332.7 | –
323.15 K, m1 = 0.4998 | 331.6 | –
323.15 K, m1 = 1 | 330.1 | –
323.15 K, m1 = 2.002 | 324.5 | –
323.15 K, m1 = 3.003 | 325.24 | –
328.15 K, m1 = 0.0201 | 322 | 986.49
328.15 K, m1 = 0.05 | 341 | 987.47
328.15 K, m1 = 0.0999 | 337.8 | 988.94
328.15 K, m1 = 0.2501 | 336 | 994.21
328.15 K, m1 = 0.4998 | 335 | 1002.15
328.15 K, m1 = 1 | 333.5 | 1017.15
328.15 K, m1 = 2.002 | 328 | 1043.78
328.15 K, m1 = 3.003 | 328.66 | 1066.4
333.15 K, m1 = 0.0201 | 325 | –
333.15 K, m1 = 0.05 | 344 | –
333.15 K, m1 = 0.0999 | 341 | –
333.15 K, m1 = 0.2501 | 339.2 | –
333.15 K, m1 = 0.4998 | 338.1 | –
333.15 K, m1 = 1 | 336.7 | –
333.15 K, m1 = 2.002 | 331.2 | –
333.15 K, m1 = 3.003 | 331.8 | –
338.15 K, m1 = 0.0201 | 328 | 981.39
338.15 K, m1 = 0.05 | 347 | 982.33
338.15 K, m1 = 0.0999 | 343.9 | 983.83
338.15 K, m1 = 0.2501 | 342 | 988.99
338.15 K, m1 = 0.4998 | 340.9 | 996.87
338.15 K, m1 = 1 | 339.5 | 1011.73
338.15 K, m1 = 2.002 | 334.2 | 1038.15
338.15 K, m1 = 3.003 | 334.7 | 1060.56
343.15 K, m1 = 0.0201 | 330 | –
343.15 K, m1 = 0.05 | 350 | –
343.15 K, m1 = 0.0999 | 346.4 | –
343.15 K, m1 = 0.2501 | 344.5 | –
343.15 K, m1 = 0.4998 | 343.5 | –
343.15 K, m1 = 1 | 342.1 | –
343.15 K, m1 = 2.002 | 336.9 | –
343.15 K, m1 = 3.003 | 337.33 | –
348.15 K, m1 = 0.0201 | 332 | 975.69
348.15 K, m1 = 0.05 | 352 | 976.65
348.15 K, m1 = 0.0999 | 348.7 | 978.12
348.15 K, m1 = 0.2501 | 346.8 | 983.23
348.15 K, m1 = 0.4998 | 345.8 | 991.14
348.15 K, m1 = 1 | 344.4 | 1005.88
348.15 K, m1 = 2.002 | 339.4 | 1032.07
348.15 K, m1 = 3.003 | 339.73 | 1054.35
353.15 K, m1 = 0.0201 | 334 | –
353.15 K, m1 = 0.05 | 354 | –
353.15 K, m1 = 0.0999 | 350.7 | –
353.15 K, m1 = 0.2501 | 348.9 | –
353.15 K, m1 = 0.4998 | 347.8 | –
353.15 K, m1 = 1 | 346.5 | –
353.15 K, m1 = 2.002 | 341.77 | –
353.15 K, m1 = 3.003 | 341.88 | –
358.15 K, m1 = 0.0201 | 336 | 969.51
358.15 K, m1 = 0.05 | 356 | 970.13
358.15 K, m1 = 0.0999 | 352.4 | 971.92
358.15 K, m1 = 0.2501 | 350.5 | 976.99
358.15 K, m1 = 0.4998 | 349.5 | 984.82
358.15 K, m1 = 1 | 348.2 | 999.52
358.15 K, m1 = 2.002 | 343.88 | 1025.52
358.15 K, m1 = 3.003 | 343.6 | 1047.59
363.15 K, m1 = 0.0201 | 337 | –
363.15 K, m1 = 0.05 | 357 | –
363.15 K, m1 = 0.0999 | 353 | –
363.15 K, m1 = 0.2501 | 351.1 | –
363.15 K, m1 = 0.4998 | 350 | –
363.15 K, m1 = 1 | 348.7 | –
363.15 K, m1 = 2.002 | 345.8 | –
363.15 K, m1 = 3.003 | 344.06 | –
368.15 K, m1 = 0.0201 | – | 962.63
368.15 K, m1 = 0.05 | – | 963.59
368.15 K, m1 = 0.0999 | – | 965.08
368.15 K, m1 = 0.2501 | – | 970.07
368.15 K, m1 = 0.4998 | – | 978.02
368.15 K, m1 = 1 | – | 992.7
368.15 K, m1 = 2.002 | – | 1018.73
368.15 K, m1 = 3.003 | – | 1041.19

From the NIST ThermoML archive (doi:10.1016/j.jct.2006.08.009)
